Laboratory results: PMC11861906, “Structural basis for lipid-mediated activation of G protein-coupled receptor GPR55” (Nature Communications, 2025)

Assays:
Assay type in all cases: cell-based
[1] = target: GPR55 cryo-EM construct (Gα13) (Homo sapiens, UniProt Q9Y2T6); experiment: BRET² G protein dissociation assay, GPR55 cryo-EM construct (GFP G67A) with Gα13; settings: for BRET2 response, Mean (plotted, Fig. S4): Cryo-EM-G67A-G13
From the text: (§1) To validate the functionality of the GPR55 cryo-EM construct, we conducted bioluminescence resonance energy transfer 2 (BRET²)-based G protein dissociation assays[46],[47] using an engineered heterotrimeric G13 protein. The N-terminal GFP fusion of the receptor was additionally modified with a G67A mutation to disrupt fluorescence properties. We employed human embryonic kidney (HEK) cells overexpressing wt or mutant GPR55 together with Gβ3, Gγ9-GFP, and Gα13 tagged with Renilla luciferase 8 (Rluc8).
(§2) G protein dissociation assays were performed according to the original protocols of the TRUPATH BRET² assay[47],[87] but with subtle modifications as previously described[61],[88],[89]. All reagents and cells were obtained from Thermo Fisher Scientific unless indicated otherwise. The coding sequences for the G protein biosensors[47] (Gα12-Rluc8, Gα13-Rluc8, wt Gβ3, and Gγ9-GFP), the wt GPR55, the construct used for cryo-EM (with GFP bearing a G67A mutation to disrupt fluorescence properties[48] for BRET² assays), GPR55 binding pocket mutants (G152^4.56F, G152^4.56W, N171^ECL2Q, N171^ECL2A, T176^5.33A, R253^6.62A), and the wt TBXA2R were codon-optimized for Homo sapiens, gene-synthesized, and sub-cloned into pcDNA^TM3.1(+) between NheI and HindIII restriction sites by GeneArt (Thermo Fisher Scientific). […] Freshly grown cells were washed with Dulbecco’s Balanced Salt Solution (DPBS, cat. #14200075) and detached using trypsin-ethylenediaminetetraacetic acid (trypsin-EDTA) (cat. #25300-062). Then, the cells were reconstituted to 500,000 cells per mL with fresh medium, and 1,000,000 cells were seeded into each well of a 6-well plate. After 3 h incubation at 37 °C and 5% CO2, adherent cells were transfected with 600 ng DNA (1:1:1:1 ratio of plasmid DNA for GPR55, wt Gβ3, Gγ9-GFP, and Gα12-Rluc8 or Gα13-Rluc8). Plasmid DNA was mixed with 1.5 µL Lipofectamine^TM 2000 (cat. #11668027) in Opti-MEM^TM medium (cat. #31985062) and incubated for 20 min. Then, the mixture was added to each well of the 6-well plate following 24 h incubation at 37 °C and 5% CO2. Transfected cells were washed with DPBS, detached using EDTA (Versene, cat. #15040066), and reconstituted into fresh medium at 500,000 cells mL^−1. From this suspension, 50,000 cells were seeded into each well of a white-bottom 96-well plate (Nunc^TM MicroWell^TM 96 wells, cat. #136101) following overnight incubation at 37 °C and 5% CO2. Then, the adherent cells were washed with assay medium [Hank’s balanced salt solution (HBSS, cat. #14065056) plus 20 mM HEPES pH 7.4 (cat. #15630056)] and finally reconstituted into 50 µL of the same medium. […] Methoxy e-Coelenterazine was used as luciferase substrate (Prolume Purple, NanoLight Technology, cat. #369), reconstituted at 1 mM in methanol and diluted to 37.5 µM with assay buffer (7.5 µM final assay concentration). The assay was started by the addition of 20 µL luciferase substrate to each well of the assay plate using a Multidrop^TM Combi reagent dispenser (Thermo Fisher Scientific), followed by 5 min incubation at room temperature. Then, 30 µL of agonist dilutions or DMSO control was added (final DMSO concentration 1.5%), followed by an additional 5 min incubation at room temperature. BRET² measurements were performed with a PHERAstar® FSX microplate reader (BMG LABTECH) using a BRET² filter (donor emission 370–450 nm, acceptor emission 500–530 nm) at the maximum fluorescence gain of 3600. BRET² ratios were calculated by dividing GFP emission signals from Rluc8 emission counts. Buffer-DMSO controls were subtracted from each data point to calculate ΔBRET² ratios.

[2] = target: GPR55 mutant N171A (Gα13) (Homo sapiens, UniProt Q9Y2T6, N171A); experiment: BRET² G protein dissociation assay, GPR55 N171A with Gα13
From the text: as §1, §2

[3] = target: GPR55 mutant T176A (Gα13) (Homo sapiens, UniProt Q9Y2T6, T176A); experiment: BRET² G protein dissociation assay, GPR55 T176A with Gα13
From the text: as §1, §2

[4] = target: GPR55 mutant G152W (Gα13) (Homo sapiens, UniProt Q9Y2T6, G152W); experiment: BRET² G protein dissociation assay, GPR55 G152W with Gα13
From the text: as §1, §2

EC50 ([1]; Cryo-EM construct (G67A), Gα13): 18.2 nM | Emax at 30 µM ([1]; Cryo-EM construct (G67A), Gα13, 30 µM ligand, same normalization, read-out: Efficacy ± SEM (%)): 86 ± 2% | BRET2 response, Mean (plotted, Fig. S4) ([1]; concentration 300 pM): 0.0007 | BRET2 response, Mean (plotted, Fig. S4) ([1]; concentration 1e-9 M): -0.00467 | BRET2 response, Mean (plotted, Fig. S4) ([1]; concentration 3e-9 M): -0.01143 | BRET2 response, Mean (plotted, Fig. S4) ([1]; concentration 1e-8 M): -0.02458 | BRET2 response, Mean (plotted, Fig. S4) ([1]; concentration 3e-8 M): -0.03698 | BRET2 response, Mean (plotted, Fig. S4) ([1]; concentration 1e-7 M): -0.04541 | BRET2 response, Mean (plotted, Fig. S4) ([1]; concentration 3e-7 M): -0.05211 | BRET2 response, Mean (plotted, Fig. S4) ([1]; concentration 1e-6 M): -0.05461 | BRET2 response, Mean (plotted, Fig. S4) ([1]; concentration 3e-6 M): -0.05649 | BRET2 response, Mean (plotted, Fig. S4) ([1]; concentration 1e-5 M): -0.05972 | BRET2 response, Mean (plotted, Fig. S4) ([1]; concentration 3e-5 M): -0.06146 | Mean (plotted) BRET² response, GPR55-N171A-G13 ([2]; Concentration 300 pM): 0.002752 | Mean (plotted) BRET² response, GPR55-N171A-G13 ([2]; Concentration 1e-9 M): 0.003846 | Mean (plotted) BRET² response, GPR55-N171A-G13 ([2]; Concentration 3e-9 M): -0.0003036 | Mean (plotted) BRET² response, GPR55-N171A-G13 ([2]; Concentration 1e-8 M): 0.001966 | Mean (plotted) BRET² response, GPR55-N171A-G13 ([2]; Concentration 3e-8 M): -0.0002448 | Mean (plotted) BRET² response, GPR55-N171A-G13 ([2]; Concentration 1e-7 M): -0.005366 | Mean (plotted) BRET² response, GPR55-N171A-G13 ([2]; Concentration 3e-7 M): -0.01646 | Mean (plotted) BRET² response, GPR55-N171A-G13 ([2]; Concentration 1e-6 M): -0.04126 | Mean (plotted) BRET² response, GPR55-N171A-G13 ([2]; Concentration 3e-6 M): -0.05866 | Mean (plotted) BRET² response, GPR55-N171A-G13 ([2]; Concentration 1e-5 M): -0.07333 | Mean (plotted) BRET² response, GPR55-N171A-G13 ([2]; Concentration 3e-5 M): -0.07936 | EC50 ([2]; GPR55 N171A, Gα13): 1050 nM | Emax at 30 µM ([2]; GPR55 N171A, Gα13, 30 µM ligand, same normalization, read-out: Efficacy ± SEM (%)): 73 ± 3% | reduction of potency compared to wt GPR55 ([2]; N171A mutant): 24 fold | Mean (plotted) BRET² response, GPR55-T176A-G13 ([3]; Concentration 300 pM): 0.001302 | Mean (plotted) BRET² response, GPR55-T176A-G13 ([3]; Concentration 1e-9 M): -0.0007282 | Mean (plotted) BRET² response, GPR55-T176A-G13 ([3]; Concentration 3e-9 M): -0.005903 | Mean (plotted) BRET² response, GPR55-T176A-G13 ([3]; Concentration 1e-8 M): -0.01189 | Mean (plotted) BRET² response, GPR55-T176A-G13 ([3]; Concentration 3e-8 M): -0.02424 | Mean (plotted) BRET² response, GPR55-T176A-G13 ([3]; Concentration 1e-7 M): -0.03886 | Mean (plotted) BRET² response, GPR55-T176A-G13 ([3]; Concentration 3e-7 M): -0.05218 | Mean (plotted) BRET² response, GPR55-T176A-G13 ([3]; Concentration 1e-6 M): -0.06011 | Mean (plotted) BRET² response, GPR55-T176A-G13 ([3]; Concentration 3e-6 M): -0.06604 | Mean (plotted) BRET² response, GPR55-T176A-G13 ([3]; Concentration 1e-5 M): -0.06889 | Mean (plotted) BRET² response, GPR55-T176A-G13 ([3]; Concentration 3e-5 M): -0.07107 | EC50 ([3]; GPR55 T176A, Gα13): 77.6 nM | Emax at 30 µM ([3]; GPR55 T176A, Gα13, 30 µM ligand, same normalization, read-out: Efficacy ± SEM (%)): 100 ± 1% | reduction of potency compared to wt GPR55 ([3]; T176A mutant): 2 fold | Mean (plotted) BRET² response, GPR55-G152W-G13 ([4]; Concentration 300 pM): -0.02434 | Mean (plotted) BRET² response, GPR55-G152W-G13 ([4]; Concentration 1e-9 M): -0.04124 | Mean (plotted) BRET² response, GPR55-G152W-G13 ([4]; Concentration 3e-9 M): -0.05947 | Mean (plotted) BRET² response, GPR55-G152W-G13 ([4]; Concentration 1e-8 M): -0.07141 | Mean (plotted) BRET² response, GPR55-G152W-G13 ([4]; Concentration 3e-8 M): -0.07973 | Mean (plotted) BRET² response, GPR55-G152W-G13 ([4]; Concentration 1e-7 M): -0.08343 | Mean (plotted) BRET² response, GPR55-G152W-G13 ([4]; Concentration 3e-7 M): -0.08701 | Mean (plotted) BRET² response, GPR55-G152W-G13 ([4]; Concentration 1e-6 M): -0.08751 | Mean (plotted) BRET² response, GPR55-G152W-G13 ([4]; Concentration 3e-6 M): -0.0887 | Mean (plotted) BRET² response, GPR55-G152W-G13 ([4]; Concentration 1e-5 M): -0.09176 | Mean (plotted) BRET² response, GPR55-G152W-G13 ([4]; Concentration 3e-5 M): -0.09408 | increase of potency compared to wt GPR55 ([4]; G152W mutant): 34 fold | Emax at 30 µM ([4]; GPR55 G152W, Gα13, 30 µM ligand, same normalization, read-out: Efficacy ± SEM (%)): 107 ± 1% | EC50 ([4]; GPR55 G152W, Gα13, calculated by extrapolating ΔBRET² ratios for concentrations <0.3 nM): 1.35 nM
SMILES: Cc1cccc(N2CCN(C(=O)c3cc(S(=O)(=O)N(C)C)ccc3N3CCCC3)CC2)c1C [ML184, 3-[[4-(2,3-dimethylphenyl)-1-piperazinyl]carbonyl]-N,N-dimethyl-4-(1-pyrrolidinyl)benzenesulfonamide]
